The results in this text go back to ChEMBL document CHEMBL1151031, “Lipophilic bis-arylsulfonates as inhibitors of the CD4-gp120 interaction” (Bioorg Med Chem Lett, 1996).

The nature of experiment [1]: Inhibition of gp120 binding to CEM cells in vitro. The class given is functional, cell-based. The following applies: ccrf-cem.
The nature of experiment [2]: Inhibition of HIV gp120 binding to CD4 receptor using ELISA assay. Also on record: species or system Human immunodeficiency virus 1.
For experiment [3], the system named is CCRF-CEM. Kind of experiment: Compound was evaluated for the cytotoxicity against CEM cells. The class given is functional. The following applies: Homo sapiens, read-out: CD50 (the source's name).
Experiment [4] concerns CCRF-CEM. Kind of experiment: Compound was evaluated for the inhibition of gp120 binding to monoclonal antibodies in CEM cells; Flat dose response. The experiment is classed as functional, cell-based, Homo sapiens.

The term IC50 denotes the concentration that inhibits the measured activity by half.

Bounds are passed on as bounds.

Turning to `CC(C)CCCC(C)[C@H]1CC[C@H]2[C@@H]3CCC4CC(C=C(c5cccc6ccc(S(=O)(=O)O)cc56)c5cccc6ccc(S(=O)(=O)O)cc56)CC[C@]4(C)[C@H]3CC[C@]12C` (some centres undefined), the IC50 in experiment [1] was 25 µM; in experiment [2], 10 µM. Moreover, the CC50 in experiment [3] is 125 µM.

Take `C[C@]12CC[C@H]3[C@@H](CCC4CC(C=C(c5cccc6cc(S(=O)(=O)O)ccc56)c5cccc6cc(S(=O)(=O)O)ccc56)CC[C@@]43C)[C@@H]1CC[C@@H]2O` (some centres undefined): the IC50 in experiment [1] was 24 µM; in experiment [2], 83 µM.

With `CC(C)CCCC(C)[C@H]1CC[C@H]2[C@@H]3CCC4CC(CCC=C(c5cccc6ccc(S(=O)(=O)O)cc56)c5cccc6ccc(S(=O)(=O)O)cc56)CC[C@]4(C)[C@H]3CC[C@]12C` (some centres undefined), the IC50 amounted to 7 µM in experiment [1] and 10 µM in experiment [2]. For the same compound, the CC50 in experiment [3] is 120 µM.

`CC(C)CCCC(C)[C@H]1CC[C@H]2[C@@H]3CCC4CC(C=C(c5ccc(S(=O)(=O)O)cc5)c5ccc(S(=O)(=O)O)cc5)CC[C@]4(C)[C@H]3CC[C@]12C` (some centres undefined): the IC50 in experiment [1] worked out at 39 µM; in experiment [2], 10 µM. In addition, the CC50 in experiment [3] is 56 µM.

Take `O=S(=O)(O)c1ccc2c(C(=CC3CCCCCCCCCCCCCC3)c3cccc4cc(S(=O)(=O)O)ccc34)cccc2c1`: the IC50 in experiment [1] came to 52 µM; in experiment [2] it was 130 µM.

For `CC(C)CCCC(C)[C@H]1CC[C@H]2[C@@H]3CCC4CC(CCC=C(c5ccc(S(=O)(=O)O)cc5)c5ccc(S(=O)(=O)O)cc5)CC[C@]4(C)[C@H]3CC[C@]12C` (some centres undefined), the IC50 in experiment [1] amounted to 47 µM; in experiment [2], 13 µM. Further, in experiment [3], the CC50 is 135 µM.

Consider `CC(C)CCCC(C)[C@H]1CC[C@H]2[C@@H]3CC[C@@H]4CC(C=C(c5cccc6cc(S(=O)(=O)O)ccc56)c5cccc6cc(S(=O)(=O)O)ccc56)CC[C@]4(C)[C@H]3CC[C@]12C` (some centres undefined), for which the 50% inhibitory concentration (IC50) in experiment [1] came out at 13 µM; in experiment [2], 26 µM.

For the compound `O=S(=O)(O)c1ccc2c(C(=CCCc3ccc4c(c3)CCc3ccccc3-4)c3cccc4cc(S(=O)(=O)O)ccc34)cccc2c1`, the IC50 turned out to be 49 µM in experiment [1] and 292 µM in experiment [2].

With `C[C@@]12CCC[C@H]1[C@@H]1CCC3CC(C=C(c4cccc5cc(S(=O)(=O)O)ccc45)c4cccc5cc(S(=O)(=O)O)ccc45)CC[C@]3(C)[C@H]1CC2` (some centres undefined), the IC50 in experiment [1] was determined as 17 µM; in experiment [2] it was 26 µM.

`CCCCC/C=C/C/C=C/CCCCCCC=C(c1cccc2cc(S(=O)(=O)O)ccc12)c1cccc2cc(S(=O)(=O)O)ccc12` had an IC50 in experiment [2] of 56 µM.

Take `CC(C)CCCC(C)[C@H]1CC[C@H]2[C@@H]3CCC4CC(OCCC=C(c5cccc6cc(S(=O)(=O)O)ccc56)c5cccc6cc(S(=O)(=O)O)ccc56)CC[C@]4(C)[C@H]3CC[C@]12C` (some centres undefined): the values for the IC50 in experiment [1] and in experiment [2] were 6 µM and 31 µM, respectively.

Compound `CCCCCCCCCCCCCCCCC=C(c1cccc2cc(S(=O)(=O)O)ccc12)c1cccc2cc(S(=O)(=O)O)ccc12` came in with an IC50 in experiment [2] of 192 µM.

As for `CCCCCCCC1(C)CCc2c(C)c(OCCC=C(c3cccc4cc(S(=O)(=O)O)ccc34)c3cccc4cc(S(=O)(=O)O)ccc34)c(C)c(C)c2O1` (centres undefined), the IC50 is 23 µM in experiment [1] and 41 µM in experiment [2].

On to `CC(C)CCCC(C)[C@H]1CC[C@H]2[C@@H]3CCC4CC(CCC=C(c5cccc6cc(S(=O)(=O)O)ccc56)c5cccc6cc(S(=O)(=O)O)ccc56)CC[C@]4(C)[C@H]3CC[C@]12C` (stereo in doubt; 1401), for which the IC50 came out at 7 µM in experiment [1] and 9 µM in experiment [2].

Consider `CC(C)CCCC(C)[C@H]1CC[C@H]2[C@@H]3CCC4CC(C=C(c5cccc(S(=O)(=O)O)c5)c5cccc(S(=O)(=O)O)c5)CC[C@]4(C)[C@H]3CC[C@]12C` (some centres undefined), for which the IC50 in experiment [2] is 62 µM; in experiment [4] it was “Flat dose response”.

For the compound `CCCCCCCCCCCCCCCCC1(C)CCc2c(C)c(OCCC=C(c3cccc4cc(S(=O)(=O)O)ccc34)c3cccc4cc(S(=O)(=O)O)ccc34)c(C)c(C)c2O1` (centres undefined), the IC50 in experiment [1] stood at 5 µM; in experiment [2] it was 25 µM.

`O=S(=O)(O)c1ccc2c(C(=CCCc3ccc4ccccc4c3)c3cccc4cc(S(=O)(=O)O)ccc34)cccc2c1`: the IC50 in experiment [1] is above 170 µM; in experiment [2] it was above 350 µM.

`CC(C)CCCC(C)[C@H]1CC[C@H]2[C@@H]3CCC4CC(C=C(c5cccc6cc(S(=O)(=O)O)ccc56)c5cccc6cc(S(=O)(=O)O)ccc56)CC[C@]4(C)[C@H]3CC[C@]12C` (some centres undefined): the IC50 in experiment [1] is 6 µM; in experiment [2] it was 16 µM.

Turning to `O=S(=O)(O)c1ccc2c(C(=CC3CCCCCCCCC3)c3cccc4cc(S(=O)(=O)O)ccc34)cccc2c1`, the IC50 in experiment [1] was 150 µM; in experiment [2], above 400 µM.

With `CC(C)CCCC(C)[C@H]1CC[C@H]2[C@@H]3CCC4C[C@@H](CCC=C(c5cc(Cl)c(O)c(C(=O)O)c5)c5cc(Cl)c(O)c(C(=O)O)c5)CC[C@]4(C)[C@H]3CC[C@]12C` (some centres undefined), the IC50 in experiment [1] turned out to be 5 µM; in experiment [2], 18 µM.

As for `CC(C)CCCC(C)[C@H]1CC[C@H]2[C@@H]3CCC4CC(CCC=C(c5cccc6cc(S(=O)(=O)O)ccc56)c5cccc6cc(S(=O)(=O)O)ccc56)CC[C@]4(C)[C@H]3CC[C@]12C` (stereo in doubt), the values for the IC50 in experiment [1] and in experiment [2] were 9 µM and 18 µM, respectively.

As to `C=CCO[C@H]1CC[C@H]2[C@@H]3CCC4CC(C=C(c5cccc6cc(S(=O)(=O)O)ccc56)c5cccc6cc(S(=O)(=O)O)ccc56)CC[C@]4(C)[C@H]3CC[C@]12C` (some centres undefined), the half-maximal inhibitory concentration (IC50) amounted to 12 µM in experiment [1] and 33 µM in experiment [2]. For the same compound, the CC50 in experiment [3] worked out at 100 µM.

Regarding `C[C@]12CCC(C=C(c3cccc4cc(S(=O)(=O)O)ccc34)c3cccc4cc(S(=O)(=O)O)ccc34)CC1CC[C@@H]1[C@@H]2CC[C@]2(C)C(=O)CC[C@@H]12` (some centres undefined), the IC50 in experiment [1] amounted to 35 µM; in experiment [2], 107 µM.
